The results in this text go back to ChEMBL document CHEMBL1158153, “Novel H3 receptor antagonists with improved pharmacokinetic profiles” (Bioorg Med Chem Lett, 2008).

The structures appear in SMILES notation.

For one data set, the species on record is Rattus norvegicus. Kind of data set: Inhibition of R(-)-alpha-methylhistamine-induced drinking response in rat dipsogenia model after 0.5 hrs. Format: functional, organism-based.
Data set [1] can be described thus: Half life in rat at 10 mg/kg, po. Set-up: dose 10 mg/kg, route oral. Format: ADME, organism-based. To be noted: in vivo.
Data set [2] can be described thus: Tmax in rat at 10 mg/kg, po. It is filed as ADME, organism-based. Set-up: dose 10 mg/kg, route oral. To be noted: in vivo.
Data set [3] has as its target T1, Histamine H3 receptor (Homo sapiens, UniProt Q9Y5N1). Kind of data set: Inverse agonist activity at human H3 receptor expressed in CHOK1 cells by GTPgammaS binding assay. Format: functional, cell-based, CHO-K1.
The target of data set [4] is T1, Histamine H3 receptor. The data set is described as follows: Antagonist activity at human histamine H3 receptor expressed in CHOK1 cells by [3H]R(-)-alpha-methylhistamine displacement assay. It is filed as cell-based, CHO-K1.
The target in data set [5] is Histamine H3 receptor (Rattus norvegicus, UniProt Q9QYN8). The data set is described as follows: Displacement of N-[3H]methylhistamine from histamine H3 receptor in rat cortex membrane. Format: cell membranes.
Data set [6] can be described thus: Bioavailability in rat at 10 mg/kg, po. It is filed as ADME, organism-based. To be noted: in vivo.

Sequence of Histamine H3 receptor (Rattus norvegicus, UniProt Q9QYN8) (Q9QYN8 whole entry): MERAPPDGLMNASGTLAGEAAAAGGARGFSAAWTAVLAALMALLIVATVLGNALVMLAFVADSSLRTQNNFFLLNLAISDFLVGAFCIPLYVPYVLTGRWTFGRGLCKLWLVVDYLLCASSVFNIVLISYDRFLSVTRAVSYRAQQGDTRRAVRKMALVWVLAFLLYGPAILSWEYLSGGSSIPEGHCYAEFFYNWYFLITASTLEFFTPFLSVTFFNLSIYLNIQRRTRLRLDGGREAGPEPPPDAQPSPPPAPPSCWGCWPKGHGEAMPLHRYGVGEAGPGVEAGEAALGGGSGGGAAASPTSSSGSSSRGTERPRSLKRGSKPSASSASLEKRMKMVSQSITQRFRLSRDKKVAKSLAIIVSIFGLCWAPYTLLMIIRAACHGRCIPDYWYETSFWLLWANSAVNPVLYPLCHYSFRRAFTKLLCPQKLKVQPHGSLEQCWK
T1 sequence (Q9Y5N1 whole entry): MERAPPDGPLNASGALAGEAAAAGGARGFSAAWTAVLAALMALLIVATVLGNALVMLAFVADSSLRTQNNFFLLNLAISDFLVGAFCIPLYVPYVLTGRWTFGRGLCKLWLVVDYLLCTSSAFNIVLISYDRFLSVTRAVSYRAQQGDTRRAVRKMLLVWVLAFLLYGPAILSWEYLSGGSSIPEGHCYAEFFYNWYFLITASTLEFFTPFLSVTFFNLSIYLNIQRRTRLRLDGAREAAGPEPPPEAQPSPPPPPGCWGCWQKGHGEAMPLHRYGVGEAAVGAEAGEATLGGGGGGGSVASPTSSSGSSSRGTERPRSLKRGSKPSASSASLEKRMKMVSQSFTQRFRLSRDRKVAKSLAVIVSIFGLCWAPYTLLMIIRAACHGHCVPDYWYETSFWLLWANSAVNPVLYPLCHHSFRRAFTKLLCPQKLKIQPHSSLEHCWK

On to `C[C@@H]1CCCN1CCc1ccc(C2=CC[C@H]3CN(C(=O)C4CCOCC4)C[C@@H]23)cc1`, for which, in the data set filed under Rattus norvegicus, the Activity result is “Dose-dependent effect”. In data set [1], the half-life is 2.5 h. The time of peak concentration (Tmax) in data set [2] came to 0.3 h. Further, the inhibitory constant (Ki) at Histamine H3 receptor [3] was found to be 4 nM; on Histamine H3 receptor [4] it was 2 nM; at Histamine H3 receptor [5], 0.7 nM. The compound further returned a bioavailability in data set [6] of 66%. As for `O=C(N1CCOCC1)N1C[C@@H]2CC=C(c3ccc(CCN4CCCC4)cc3)[C@@H]2C1`, affinity on Histamine H3 receptor [5] was put at a Ki of 12 nM.

As for `O=C(c1ccccc1)N1C[C@@H]2CC=C(c3ccc(CCN4CCCC4)cc3)[C@@H]2C1`, the inhibition constant Ki at Histamine H3 receptor [5] is 21 nM. With `O=C(CO)N1C[C@@H]2CC=C(c3ccc(CCN4CCCC4)cc3)[C@@H]2C1`, the half-life in data set [1] was 1.8 h. Moreover, in data set [2], the Tmax turned out to be 0.6 h. Moreover, the affinity at Histamine H3 receptor [5] corresponds to a Ki of 6 nM. This compound also returned a bioavailability in data set [6] of 39%. `C[C@@H]1CCCN1CCc1ccc(C2=CC[C@H]3CN(C(=O)Cc4ccccc4)C[C@@H]23)cc1` registered an inhibitory constant (Ki) at Histamine H3 receptor [5] of 0.3 nM. On the same count and under the same terms, the result for `O=C(Cc1ccccc1)N1C[C@@H]2CC=C(c3ccc(CCN4CCCC4)cc3)[C@@H]2C1` reads 7 nM. In data set [1], `CC(C)NC(=O)N1C[C@@H]2CC=C(c3ccc(CCN4CCCC4)cc3)[C@@H]2C1` had a half-life of 7.3 h. In addition, the Tmax in data set [2] stood at 0.3 h. For the same compound, the Ki on Histamine H3 receptor [5] was 20 nM. Also, the bioavailability in data set [6] was 22%. On to `CC(C)C(=O)N1C[C@@H]2CC=C(c3ccc(CCN4CCCC4)cc3)[C@@H]2C1`, for which, at Histamine H3 receptor [5], the Ki is 5 nM. Still for that read-out and setting: the result for `O=S(=O)(Cc1ccccc1)N1C[C@@H]2CC=C(c3ccc(CCN4CCCC4)cc3)[C@@H]2C1` reads 12 nM; that for `CN(C)C(=O)N1C[C@@H]2CC=C(c3ccc(CCN4CCCC4)cc3)[C@@H]2C1`, 13 nM. In the case of `C[C@@H]1CCCN1CCc1ccc(C2=CC[C@H]3CN(C(=O)c4ccccc4)C[C@@H]23)cc1`, at Histamine H3 receptor [5], the Ki stood at 3 nM.

At Histamine H3 receptor [5], `C[C@@H]1CCCN1CCc1ccc(C2=CC[C@H]3CN(C(=O)c4cccnc4)C[C@@H]23)cc1` showed a Ki of 1 nM. The same measure, in the same setting: the result for `O=C(NC1CCCC1)N1C[C@@H]2CC=C(c3ccc(CCN4CCCC4)cc3)[C@@H]2C1` reads 16 nM.

Compound `C1=C(c2ccc(CCN3CCCC3)cc2)[C@@H]2CN(CC3CC3)C[C@@H]2C1` gave a half-life in data set [1] of 6 h. Moreover, the Tmax in data set [2] is 6 h. The Ki stood at 1 nM on Histamine H3 receptor [3] and 0.9 nM at Histamine H3 receptor [4]. `C[C@@H]1CCCN1CCc1ccc(C2=CC[C@H]3CN(C(=O)C4CCCC4)C[C@@H]23)cc1` gave a Ki on Histamine H3 receptor [5] of 0.4 nM. Compound `O=C(c1cccnc1)N1C[C@@H]2CC=C(c3ccc(CCN4CCCC4)cc3)[C@@H]2C1` returned a Ki on Histamine H3 receptor [5] of 6 nM. In the case of `O=S(=O)(c1ccccc1)N1C[C@@H]2CC=C(c3ccc(CCN4CCCC4)cc3)[C@@H]2C1`, the inhibitory constant (Ki) on Histamine H3 receptor [5] came out at 17 nM. With `CC(C)S(=O)(=O)N1C[C@@H]2CC=C(c3ccc(CCN4CCCC4)cc3)[C@@H]2C1`, in data set [1], the half-life was 5 h. Also, the Tmax in data set [2] amounted to 0.2 h. Besides, affinity on Histamine H3 receptor [5] was put at a Ki of 12 nM. Also, the bioavailability in data set [6] was 3%. Compound `CC(C)C(=O)N1C[C@@H]2CC=C(c3ccc(CCN4CCC[C@H]4C)cc3)[C@@H]2C1` returned a Ki on Histamine H3 receptor [5] of 0.4 nM. Consider `O=C(C1CCOC1)N1C[C@@H]2CC=C(c3ccc(CCN4CCCC4)cc3)[C@@H]2C1` (stereo not given in full), for which the Ki at Histamine H3 receptor [5] was found to be 4 nM.

`CS(=O)(=O)N1C[C@@H]2CC=C(c3ccc(CCN4CCCC4)cc3)[C@@H]2C1` had a Ki at Histamine H3 receptor [5] of 27 nM. On the same count and under the same terms, the same measure for `O=C(C1CCCC1)N1C[C@@H]2CC=C(c3ccc(CCN4CCCC4)cc3)[C@@H]2C1`: 3 nM.
